For orientation: Ki means a measure of affinity in units of concentration, obtained from inhibition or displacement.

A value given as a limit tells only on which side of the number the result lay.

One assay deals with Human α2δ-1 subunit of Cav2.2 calcium channel (Homo sapiens (Human), UniProt P54289). As to the kind of experiment: Human α2δ-1 subunit of Cav2.2 calcium channel assay ([3H]-Gabapentin binding).
Human α2δ-1 subunit of Cav2.2 calcium channel, sequence (P54289 25-1103): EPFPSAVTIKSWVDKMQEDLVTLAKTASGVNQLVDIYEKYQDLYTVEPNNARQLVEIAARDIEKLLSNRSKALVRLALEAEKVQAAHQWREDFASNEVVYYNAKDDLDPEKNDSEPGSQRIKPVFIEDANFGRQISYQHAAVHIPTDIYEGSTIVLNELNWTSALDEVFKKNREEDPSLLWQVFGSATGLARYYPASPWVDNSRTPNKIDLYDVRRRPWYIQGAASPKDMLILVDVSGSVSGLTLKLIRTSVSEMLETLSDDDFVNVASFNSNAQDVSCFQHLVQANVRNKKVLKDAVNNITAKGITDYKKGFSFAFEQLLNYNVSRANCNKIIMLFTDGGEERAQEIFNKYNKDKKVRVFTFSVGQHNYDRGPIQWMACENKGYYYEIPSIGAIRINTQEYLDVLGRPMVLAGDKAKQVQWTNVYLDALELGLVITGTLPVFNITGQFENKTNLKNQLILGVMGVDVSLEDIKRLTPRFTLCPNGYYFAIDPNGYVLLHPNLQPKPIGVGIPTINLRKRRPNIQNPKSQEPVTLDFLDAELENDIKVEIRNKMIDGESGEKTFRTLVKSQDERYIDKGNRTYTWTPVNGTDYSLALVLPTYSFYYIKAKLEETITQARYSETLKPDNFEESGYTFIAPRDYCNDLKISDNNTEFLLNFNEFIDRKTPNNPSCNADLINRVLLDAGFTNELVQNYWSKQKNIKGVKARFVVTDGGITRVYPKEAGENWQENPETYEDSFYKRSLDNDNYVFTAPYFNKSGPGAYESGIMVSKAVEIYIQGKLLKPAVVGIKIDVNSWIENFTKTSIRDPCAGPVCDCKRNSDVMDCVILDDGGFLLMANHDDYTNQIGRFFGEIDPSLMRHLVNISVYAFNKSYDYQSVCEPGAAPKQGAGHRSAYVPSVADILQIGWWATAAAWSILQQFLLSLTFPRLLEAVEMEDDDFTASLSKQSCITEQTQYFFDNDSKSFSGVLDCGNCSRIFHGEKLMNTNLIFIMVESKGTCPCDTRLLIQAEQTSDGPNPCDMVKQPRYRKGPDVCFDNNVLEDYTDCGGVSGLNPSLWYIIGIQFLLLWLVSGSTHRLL
Details: not given
Turning to `CCN(C)CCN(C(=O)c1cccs1)c1ccn(-c2ccccc2)n1` [Example 63], the inhibition constant Ki lay within 0.5 to 5 µM.

As to `O=C(c1cccs1)N(c1ccn(-c2ccccc2)n1)C1CCCNC1` (stereo not drawn) [Example 53, N-(1-Phenyl-1H-pyrazol-3-yl)-N-(piperidin-3-yl)thiophene-2-carboxamide], the inhibition constant Ki fell in the range of 0.5 to 5 µM.

Turning to `CCNCCN(C(=O)c1cccs1)c1ccn(-c2ccccc2)n1` [Example 68, N-[2-(Ethylamino)ethyl]-N-(1-phenyl-1H-pyrazol-3-yl)thiophene-2-carboxamide], the Ki lay in the range of 0.5 to 5 µM.

For the molecule `CN1CCCC(N(C(=O)c2cccs2)c2ccn(-c3ccccc3)n2)CC1` (stereo not drawn) [Example 39, N-(1-Methylazepan-4-yl)-N-(1-phenyl-1H-pyrazol-3-yl)thiophene-2-carboxamide], the Ki lay within 0.1 to 0.5 µM.

As for `CNCCN(C(=O)c1cccs1)c1ccn(-c2ccccc2)n1` [Example 57, N-[2-(Methylamino)ethyl]-N-(1-phenyl-1H-pyrazol-3-yl)thiophene-2-carboxamide], the Ki was in the range of 0.5 to 5 µM.

As for `CN(CCN(C(=O)c1cccs1)c1ccn(-c2ccccc2)n1)Cc1ccccc1` [Example 61, N-{2-[Benzyl(methyl)amino]ethyl}-N-(1-phenyl-1H-pyrazol-3-yl)thiophene-2-carboxamide], the Ki was in the range of 0.5 to 5 µM.

`O=C(c1cccs1)N(CCNCc1ccccc1)c1ccn(-c2ccccc2)n1` [Example 55, N-[2-(Benzylamino)ethyl]-N-(1-phenyl-1H-pyrazol-3-yl)thiophene-2-carboxamide]: the inhibitory constant (Ki) fell in the range of 0.5 to 5 µM.

Take `CN(CCCN(C(=O)c1cccs1)c1ccn(-c2ccccc2)n1)Cc1ccccc1` [Example 62, N-{3-[Benzyl(methyl)amino]propyl}-N-(1-phenyl-1H-pyrazol-3-yl)thiophene-2-carboxamide]: the Ki was in the range of 0.5 to 5 µM.

In the case of `O=C(c1cccs1)N(CCCNCc1ccccc1)c1ccn(-c2ccccc2)n1` [Example 56, N-[3-(Benzylamino)propyl]-N-(1-phenyl-1H-pyrazol-3-yl)thiophene-2-carboxamide], the Ki fell in the range of 0.5 to 5 µM.

For the molecule `Cc1nnc(-c2cccc(-n3ccc(N(CCN(C)Cc4ccccc4)C(=O)c4cccs4)n3)c2)o1` [Example 69, N-{2-[Benzyl(methyl)amino]ethyl}-N-{1-[3-(5-methyl-1,3,4-oxadiazol-2-yl)phenyl]-1H-pyrazol-3-yl}thiophene-2-carboxamide], the Ki was 0.1 to 0.5 µM.

The assay is the same for the next values; noted with them: [3H]-Gabapentin binding; read-out: α2δ − 1 (Ki).
On to `CN(CCN(C(=O)c1cccs1)c1ccn(-c2ccccc2)n1)Cc1ccncc1` [Example 64, N-{2-[Methyl(pyridin-4-ylmethyl)amino]ethyl}-N-(1-phenyl-1H-pyrazol-3-yl)thiophene-2-carboxamide], for which the Ki is over 5 µM.

Regarding `Cc1nnc(-c2cccc(-n3ccc(N(C(=O)c4cccc(O)c4)[C@H]4CC[C@@H](N(C)Cc5ccccc5)CC4)n3)c2)o1` [Example 154, N-{(1s,4s)-4-[Benzyl(methyl)amino]cyclohexyl}-3-hydroxy-N-{1-[3-(5-methyl-1,3,4-oxadiazol-2-yl)phenyl]-1H-pyrazol-3-yl}benzamide], the Ki was over 5 µM.

For `Cc1nnc(-c2cccc(-n3ccc(N(C(=O)c4cccc(O)c4)[C@H]4CC[C@H](N(C)C)CC4)n3)c2)o1` [Example 150, N-[(1r,4r)-4-(Dimethylamino)cyclohexyl]-3-hydroxy-N-{1-[3-(5-methyl-1,3,4-oxadiazol-2-yl)phenyl]-1H-pyrazol-3-yl}benzamide], the Ki was over 5 µM.

With `Cc1nnc(-c2cccc(-n3ccc(N(C(=O)c4cccs4)[C@H]4CC[C@H](N(C)C)CC4)n3)c2)o1` [Example 149, N-[(1r,4r)-4-(Dimethylamino)cyclohexyl]-N-{1-[3-(5-methyl-1,3,4-oxadiazol-2-yl)phenyl]-1H-pyrazol-3-yl}thiophene-2-carboxamide], the inhibition constant Ki was over 5 µM.

With `Cc1nnc(-c2cccc(-n3ccc(N(C(=O)c4cccs4)[C@H]4CC[C@H](N(C)Cc5ccccc5)CC4)n3)c2)o1` [Example 151, N-{(1r,4r)-4-[Benzyl(methyl)amino]cyclohexyl}-N-{1-[3-(5-methyl-1,3,4-oxadiazol-2-yl)phenyl]-1H-pyrazol-3-yl}thiophene-2-carboxamide], the Ki is over 5 µM.

With `Cc1nnc(-c2cccc(-n3ccc(N(C(=O)c4cccs4)[C@H]4CC[C@@H](N(C)Cc5ccccc5)CC4)n3)c2)o1` [Example 152, N-{(1s,4s)-4-[Benzyl(methyl)amino]cyclohexyl}-N-{1-[3-(5-methyl-1,3,4-oxadiazol-2-yl)phenyl]-1H-pyrazol-3-yl}thiophene-2-carboxamide], the Ki is over 5 µM.

As to `Cc1nnc(-c2cccc(-n3ccc(N(C(=O)c4cccc(O)c4)[C@H]4CC[C@H](N(C)Cc5ccccc5)CC4)n3)c2)o1` [Example 153, N-{(1r,4r)-4-[Benzyl(methyl)amino]cyclohexyl}-3-hydroxy-N-{1-[3-(5-methyl-1,3,4-oxadiazol-2-yl)phenyl]-1H-pyrazol-3-yl}benzamide], the inhibition constant Ki was over 5 µM.

`CN(CCN(C(=O)c1cccs1)c1ccn(-c2ccccc2)n1)Cc1cccnc1` [Example 65]: the Ki fell in the range of 0.5 to 5 µM.

Regarding `CN(C)C1CCC(N(C(=O)c2cccs2)c2ccn(-c3ccccc3)n2)CC1` (stereo not drawn) [Example 127, N-[4-(Dimethylamino)cyclohexyl]-N-(1-phenyl-1H-pyrazol-3-yl)thiophene-2-carboxamide], the Ki was over 5 µM.

For the molecule `CN(Cc1ccccc1)C1CCC(N(C(=O)c2cccs2)c2ccn(-c3ccccc3)n2)CC1` (stereo not drawn) [Example 128, N-{4-[Benzyl(methyl)amino]cyclohexyl}-N-(1-phenyl-1H-pyrazol-3-yl)thiophene-2-carboxamide], the inhibitory constant (Ki) is over 5 µM.

Still in this assay, the particulars now being: read-out: α2δ − 1 (Ki).
As for `CN1CCCC(N(C(=O)c2cccs2)c2ccn(-c3ccccc3)n2)C1` (stereo not drawn) [Example 67, N-(1-Methylpiperidin-3-yl)-N-(1-phenyl-1H-pyrazol-3-yl)thiophene-2-carboxamide], the inhibition constant (Ki) is over 5 µM.

Source of the values: patent US10577360B2, “Arylamide derivatives having multimodal activity against pain” (ESTEVE PHARMACEUTICALS, S.A., priority 2016, dated 2020).
